Several values for one entry are separate records, joined by “and”; a condition that tells them apart may be missing. Equal values may be shown once.
What follows are compounds tested against Chromo domain-containing protein 1 (Saccharomyces cerevisiae (strain ATCC 204508 / S288c) (Baker's yeast), UniProt P32657) (assay: ScCHD-1 Enzyme Inhibition Assay).
Assay type: functional

Chromo domain-containing protein 1, sequence (P32657 whole entry, the tested form may be a part): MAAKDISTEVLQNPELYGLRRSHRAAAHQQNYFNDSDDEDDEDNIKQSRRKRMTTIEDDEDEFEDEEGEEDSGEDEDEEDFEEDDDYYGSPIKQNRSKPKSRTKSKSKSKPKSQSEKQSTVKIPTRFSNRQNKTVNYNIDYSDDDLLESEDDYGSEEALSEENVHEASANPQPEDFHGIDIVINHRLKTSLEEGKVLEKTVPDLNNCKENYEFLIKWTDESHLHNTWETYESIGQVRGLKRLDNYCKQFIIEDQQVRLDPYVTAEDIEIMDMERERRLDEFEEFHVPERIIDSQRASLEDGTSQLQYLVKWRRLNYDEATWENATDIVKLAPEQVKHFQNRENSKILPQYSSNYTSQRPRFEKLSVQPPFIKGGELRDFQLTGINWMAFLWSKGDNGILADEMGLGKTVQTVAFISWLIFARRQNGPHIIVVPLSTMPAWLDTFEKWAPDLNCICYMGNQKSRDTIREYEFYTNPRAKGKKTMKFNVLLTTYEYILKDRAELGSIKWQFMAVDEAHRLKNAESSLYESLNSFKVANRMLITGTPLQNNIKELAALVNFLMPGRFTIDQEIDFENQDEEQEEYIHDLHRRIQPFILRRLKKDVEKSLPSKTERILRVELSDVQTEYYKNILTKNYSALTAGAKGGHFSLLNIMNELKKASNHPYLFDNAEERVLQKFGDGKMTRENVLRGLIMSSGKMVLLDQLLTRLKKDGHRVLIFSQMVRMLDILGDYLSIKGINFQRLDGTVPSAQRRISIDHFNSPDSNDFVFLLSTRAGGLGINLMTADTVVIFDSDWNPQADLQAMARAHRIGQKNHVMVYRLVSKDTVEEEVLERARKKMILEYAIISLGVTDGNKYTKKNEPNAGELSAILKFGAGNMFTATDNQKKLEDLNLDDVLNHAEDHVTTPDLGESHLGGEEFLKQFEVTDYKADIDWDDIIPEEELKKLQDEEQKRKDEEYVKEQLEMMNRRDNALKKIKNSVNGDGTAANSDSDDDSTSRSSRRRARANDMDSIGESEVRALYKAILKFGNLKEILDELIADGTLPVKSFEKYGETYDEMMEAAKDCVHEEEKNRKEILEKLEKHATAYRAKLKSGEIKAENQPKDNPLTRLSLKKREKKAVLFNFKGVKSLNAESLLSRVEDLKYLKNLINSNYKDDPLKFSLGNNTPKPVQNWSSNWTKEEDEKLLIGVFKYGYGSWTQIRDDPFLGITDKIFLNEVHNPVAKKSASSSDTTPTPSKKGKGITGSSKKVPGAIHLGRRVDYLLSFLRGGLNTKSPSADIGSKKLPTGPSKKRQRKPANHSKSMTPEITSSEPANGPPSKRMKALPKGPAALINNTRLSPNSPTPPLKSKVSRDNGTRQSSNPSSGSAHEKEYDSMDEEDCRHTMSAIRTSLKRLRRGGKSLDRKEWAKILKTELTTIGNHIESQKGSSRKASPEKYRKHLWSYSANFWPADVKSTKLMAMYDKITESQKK

| Compound | IC50 |
| --- | --- |
| Cc1ccc(C(=O)NCCCN2CCOCC2)c(Cl)c1 | > 29.5 µM |
| CC(=O)NCCC(=O)NCc1cccnc1-n1cnc2ccccc21 | > 29.5 µM |
| O=C(NCc1ccco1)[C@H]1C[C@H]2OCC[C@H]2N(C(=O)c2ccco2)C1 | > 29.5 µM |
| NCC1(c2cccc(C(F)(F)F)c2)CCOCC1 | > 29.5 µM |
| CCNC(=O)N(C)Cc1ccc(SC)c(OC)c1 | > 29.5 µM |
| N#Cc1cn(CC(=O)NC2CC2)c2ccc(Br)cc2c1=O | > 29.5 µM |
| Cc1cc(NC(=O)Cn2cc(C#N)c(=O)c3cc(Br)ccc32)no1 | > 29.5 µM and 25.6 µM |
| Cc1cnn(C2CN(CC(O)c3ccc(F)cc3)C2)c1 (stereo not drawn) | > 29.5 µM |
| FC(F)(F)COCCN1CCCC(c2noc(C3CC3)n2)C1 (stereo not drawn) | > 29.5 µM |
| Cc1ccc(S(=O)(=O)NCCNC(=O)c2ccoc2)cc1F | > 29.5 µM |
| O=C(NCC(F)(F)F)NC1CCCc2c1cnn2CCO (stereo not drawn) | > 29.5 µM |
| CSCc1nc(C(C)(C)NC(=O)OC(C)(C)C)no1 | > 29.5 µM |
| CC(C)c1noc(CCC(=O)NC(C)c2nnc3n2CCCCC3)n1 (stereo not drawn) | > 29.5 µM |
| CC(CNC(=O)c1ccc(Cl)cc1I)N1CCCC1 (stereo not drawn) | > 29.5 µM |
| Cc1cnn(CC2CCCN2CC(=O)N(C)CCC#N)c1 (stereo not drawn) | > 29.5 µM |
| Cc1ccccc1C1CCCN1C(=O)CN1CC2(CCNCC2)OC1=O (stereo not drawn) | > 29.5 µM |
| CCNC(=O)CCN1CCC(c2cc(N3CCOCC3)nc(C)n2)CC1 | > 29.5 µM |
| CCn1nc(CC(C)C)cc1C(=O)N1CC[C@@H](O)C1 | > 29.5 µM |
| CCn1ncnc1C1CC(=O)NCc2nc3ccccn3c21 (stereo not drawn) | > 29.5 µM |
| O=C(Cc1cccnc1)N1CCC(OCc2ccccc2)CC1 | > 29.5 µM |
| Cc1ncc(S(C)(=O)=O)c(C2CCCNC2)n1 (stereo not drawn) | > 29.5 µM |
| COC[C@@]12CC[C@@H](N3CCOCC3)C[C@H]1CCN(c1ncccn1)C2 | > 29.5 µM |
| CCNC(=O)[C@@H]1C[C@H](NC(=O)Cc2ccsc2)CN1Cc1ccc(C)o1 | > 29.5 µM |
| c1cnn(Cc2nnc(C3CCN(C4CCOCC4)CC3)n2C2CC2)c1 | > 29.5 µM |

| Compound | IC50 |
| --- | --- |
| O=C(CCc1c[nH]cn1)N1CC[C@@H](c2ccc3ccccc3c2)[C@H](O)C1 | > 29.5 µM |
| CCCN1CCCn2nc(CNS(=O)(=O)c3cccc(C#N)c3)cc2C1 | > 29.5 µM |
| CS(=O)(=O)NCc1cc2n(n1)CCCN(Cc1cccc(C#N)c1)C2 | > 29.5 µM |
| COc1ccc(C(=O)C2CCCN(CCCn3cccn3)C2)c(OC)c1 (stereo not drawn) | > 29.5 µM |
| COc1ccc(C(=O)C2CCCN(Cc3ccncc3)C2)c(OC)c1 (stereo not drawn) | > 29.5 µM |
| c1cn(Cc2nnc(C3CCN(c4nccs4)CC3)n2C2CC2)cn1 | > 29.5 µM |
| CN(C)Cc1ccc(C2CCCCN2C(=O)c2cccc(CO)n2)cc1 (stereo not drawn) | > 29.5 µM |
| Cc1nc(N2CCN(C)CC2)ncc1C(=O)N1CC(C)(C)C(C)(O)C1 (stereo not drawn) | > 29.5 µM |
| CCn1ccnc1CN1CCC(CCC(=O)Nc2ccccc2Cl)CC1 | > 29.5 µM |
| Cc1nc(CN2CCCC(CCc3c(F)cccc3F)C2)c[nH]1 (stereo not drawn) | > 29.5 µM |
| COc1cccc2c1OCC(C(=O)NC1CCN(S(C)(=O)=O)CC1)C2 (stereo not drawn) | > 29.5 µM |
| Cc1nc(N)sc1C(=O)N1CCCC(c2nccn2CCCN(C)C)C1 (stereo not drawn) | > 29.5 µM |
| CCc1c(C)nn(CCNC(=O)C2CCCN(C(=O)N(C)C)C2)c1C (stereo not drawn) | > 29.5 µM |
| COc1ccc(NC(=O)CCC2CCCN(Cc3ncon3)C2)cc1Cl (stereo not drawn) | > 29.5 µM |
| CCC(NC(=O)C1CCN(S(C)(=O)=O)CC1)c1ccc(OC)c(C)c1 (stereo not drawn) | > 29.5 µM |
| CN(C)Cc1nnc(C2CCN(C(=O)CCc3cccs3)CC2)n1C | > 29.5 µM |
| O=C1N(Cc2cccc(F)c2F)CCCC1(O)CNC1CCCC1 (stereo not drawn) | > 29.5 µM |
| CN(C)CC1(O)CCN(S(=O)(=O)c2ccc(F)cc2)C1 (stereo not drawn) | > 29.5 µM |
| O=C(Cn1c(=O)n(Cc2ccco2)c2ncccc21)NC1CCCCC1 | > 29.5 µM |
| CN(C(=O)C1CCCCC1)[C@@H]1CCC[C@@H](N2CCOCC2)[C@@H]1O | > 29.5 µM |
| COCCN1CCN(CCCS(C)(=O)=O)CC1C (stereo not drawn) | > 29.5 µM |
| COc1c(CNC2CCc3c(Cl)cccc32)c(C)nn1C (stereo not drawn) | > 29.5 µM |
| O=C(NC1CC1)[C@H]1C[C@H]2OCC[C@H]2N(CC2CCOCC2)C1 | > 29.5 µM |
| Cc1ccc(=O)n(CC2(O)CCN(Cc3cc(C)c(O)c(C)c3)CC2)n1 | > 29.5 µM |
